Reference: patent US9988377B2, “Small molecule inducers of GDNF as potential new therapeutics for neuropsychiatric disorders” (THE TRUSTEES OF COLUMBIA UNIVERSITY IN THE CITY OF NEW YORK, priority 2011, dated 2018)
Like-named read-outs stand apart in the source and are kept apart here.

Key:
[1] = system: GDNF release from C6 glioma cells; assay: GDNF in-situ ELISA in C6 glioma cells; format: cell-based; settings: 10 μM compound, 48-hour incubation, fold over control release, corrected for pre-treatment release; for fold induction at 10 µM: C6 glioma, 48 h, read-out: Fold-Increase of GDNF Concentration
Description: The GDNF Emax Immunoassay System from Promega (Madison, Wis.) was used to determine small molecule induced GDNF release from C6 glioma cells (ATCC, Manassas, Va.) with the following protocol. A 96-well ELISA plate was sterilized with UV for 30 minutes. The plate was coated with 100 μl/well of the anti-GDNF monoclonal antibody solution in carbonate coating buffer prepared per the manufacturer's instructions, and incubated overnight at 4° C. The antibody coating buffer was removed from the plate, which was then blocked according to the instructions in the kit. The plate was then incubated with 200 μl/well complete growth medium ([…], 5% FBS, 1% penicillin/streptomycin) for 2×1 h at rt to remove residue of the blocking buffer. After these washes were complete, fresh culture media was added to the wells. C6 cells were seeded at a density of 11,000 cells/well, with a total volume of approximately 150 μl in each well. The plate was incubated at 37° C. in an atmosphere containing 5% CO2. After 24 hours, complete growth medium was replaced with low serum medium (98.5% DMEM, 0.5% FBS, 1% penicillin/streptomycin) and the plate was incubated overnight for cellular synchronization. On the following day, cells were treated with experimental compounds for the indicated time. We used 10 μM concentrations of the tested compounds during a 48-hour incubation. Simultaneously with initiation of treatment, cells were removed from pre-treatment control wells with 5×200 μL washes of TBST (to control for basal GDNF release before the treatment period), and low-serum medium was added to these wells. 6 hours prior to stopping treatment with experimental compounds, the GDNF standard was added to the plate per the manufacturer's instructions. To terminate the treatment, the plate was washed extensively with 200 μl/well TBST washing buffer 5 times, which removed the cells. GDNF release for each well was measured according to GDNF Emax Immunoassay system instructions, and a plate reader was used to measure absorbance at 450 nm. Total GDNF release is calculated from the standard curve using Microsoft Excel. The listed values in Table 1 are presented as fold-increase of release of GDNF over control release of GDNF, corrected for pre-treatment release by subtracting from all values the mean amount of GDNF released in pre-treatment control wells. Statistical significance was determined using the Student's t-test.

[2] = system: GDNF release from C6 cells; assay: GDNF releasing potency assay (dose-response in C6 cells); format: cell-based; settings: 0.1-50 uM, concentration giving 50% of maximal GDNF release
Description: Four compounds were selected for determination of GDNF releasing potency. The EC50 value (Table 3) is defined as the concentration of the compound at which 50% of maximal GDNF release is obtained. The C6 cells were incubated with the selected compounds over a range of concentrations (0.1, 1, 5, 10, 20, 30 and 50 uM for each compound) and the amount of released GDNF at each concentration was via examing the dose-dependent release. A dose-response curve was constructed and the EC50 value was obtained by fitting this curve using GraphPad Prism software.

[3] = system: alcohol intake; settings: rats; effect dependent on induction of GDNF in the VTA; cited from earlier work
[4] = system: alcohol intake; settings: mice; effect dependent on induction of GDNF in the VTA; cited from earlier work
[5] = Rattus norvegicus, C6, C6 cells

## CCC1CC2C=CC1N(CCc1c[nH]c3ccccc13)C2 (racemic) [Compound 10a, exo-2-[2-(1H-indol-3-yl)ethyl]-7-ethyl-2-azabicyclo[2.2.2]oct-5-ene]
[1]
  Fold-Increase of GDNF Concentration: 3.2 ± 0.2 fold
[2]; [5]
  EC50: 10.2 ± 0.3 µM

## CCC1CC2C=CC1N(CCc1c[nH]c3ccccc13)C2 (racemic) [Compound 12a, endo-2-[2-(1H-indol-3-yl)ethyl]-7-ethyl-2-azabicyclo[2.2.2]oct-5-ene]
[1]
  fold induction at 10 µM: 2 ± 0.1
[2]; C6 cells
  EC50: 18.2 ± 0.2 µM

## CCC1CC2C=CC1N(CCc1c[nH]c3ccc(C(F)(F)F)cc13)C2 (racemic) [Compound 12f, endo-7-ethyl-2-[2-(5-trifluoromethyl-1H-indol-3-yl)ethyl]-2-azabicyclo[2.2.2]oct-5-ene]
[1]
  fold induction at 10 µM: 2

## CCC1CC2C=CC1N(CCc1coc3ccccc13)C2 (racemic) [Compound 12g, endo-2-[2-(benzofuran-3-yl)ethyl]-7-ethyl-2-azabicyclo [2.2.2]oct-5-ene]
[1]
  fold induction at 10 µM: 2.9 ± 0.1
[2]; C6 cells
  EC50: 3.6 ± 0.1 µM
[2]; [5]
  EC50: 3.3 µM

## CCC1CC2C=CC1N(CCc1c[nH]c3ccc(F)cc13)C2 (racemic) [Compound 12h, endo-7-ethyl-2-[2-(5-fluoro-1H-indol-3-yl)ethyl]-2-azabicyclo[2.2.2]oct-5-ene]
[1]
  fold induction at 10 µM: 3.1 ± 0.2
[2]; [5]
  EC50: 3.3 µM

## CCC1CC2C=CC1N(CCc1nc3ccccc3[nH]1)C2 (racemic) [Compound 12l, endo-2-[2-(1H-benzo[d]imidazol-2-yl)ethyl]-7-ethyl-2-azabicyclo[2.2.2]oct-5-ene]
[1]
  fold induction at 10 µM: 1.5

## CCC1CC2CCC1N(CCc1c[nH]c3ccccc13)C2 (racemic) [Compound 13a, endo-2-[2-(1H-indol-3-yl)ethyl]-7-ethyl-2-azabicyclo [2.2.2]octane]
[1]
  fold induction at 10 µM: 2

## CCC1CC2CCC1N(CCc1c[nH]c3ccc(F)cc13)C2 (racemic) [Compound 13b, endo-7-ethyl-2-[2-(5-fluoro-1H-indol-3-yl)ethyl]-2-azabicyclo [2.2.2]octane]
[1]
  fold induction at 10 µM: 2

## C1=CC2CCC1CN2CCc1c[nH]c2ccccc12 (racemic) [Compound 18a, 2-[2-(1H-indol-3-yl)ethyl]-2-azabicyclo[2.2.2]oct-5-ene]
[1]
  fold induction at 10 µM: 1.6

## C1=CC2CCC1CN2Cc1c[nH]c2ccccc12 (racemic) [Compound 18b, 2-[(1H-indol-3-yl)methyl]-2-azabicyclo[2.2.2]oct-5-ene]
[1]
  fold induction at 10 µM: 1.6 ± 0.1

## CCOC(=O)C1CC2C=CC1N(CCc1c[nH]c3ccccc13)C2 (racemic) [Compound 21, 7-exo-ethoxycarbonyl-2-[2-(1H-indol-3-yl)ethyl]-2-azabicyclo[2.2.2]oct-5-ene]
[1]
  fold induction at 10 µM: 1

## CCOC(=O)C1CC2C=CC1N(CCc1c[nH]c3ccccc13)C2 (racemic) [Compound 22, 7-endo-ethoxycarbonyl-2-[2-(1H-indol-3-yl)ethyl]-2-azabicyclo[2.2.2]oct-5-ene]
[1]
  Fold-Increase of GDNF Concentration: 2.0 ± 0.0 fold

## CC[C@H]1C[C@H]2C[C@H]3c4[nH]c5ccc(O)cc5c4CCN(C2)[C@@H]13 [noribogaine]
[3]
  self-administration and reinstatement of alcohol intake: reduce self-administration and reinstatement of alcohol intake
[4]
  self-administration and reinstatement of alcohol intake: reduce self-administration and reinstatement of alcohol intake

## ibogaine
[3]
  self-administration and reinstatement of alcohol intake: reduce self-administration and reinstatement of alcohol intake
[4]
  self-administration and reinstatement of alcohol intake: reduce self-administration and reinstatement of alcohol intake
